Legend:
[1] = system: Ascaridia galli; assay: In vitro assay Ascaridia galli larval stage 3; format: cell-based; details: larval stage 3, 20 larvae per well, microscopic examination, read-out: MEC (minimum effective concentration) against Ascaridia galli L3
Source text: (§1) […] galli (intestinal roundworm of chicken), larval stage 3 (“L3”); and Oesophagostumum dentatum (nodular worm of swine), larval stages 3 and 4 (respectively “L3” and “L4”) where suspended in a nutrient medium and distributed to 96 well plates with 20 larvae per well. The wells were spiked DMSO solutions of the compounds with declining concentration.

[2] = system: Oesophagostumum dentatum; assay: In vitro assay Oesophagostumum dentatum larval stage 3; format: cell-based; details: larval stage 3, 20 larvae per well, microscopic examination; read-out: MEC (minimum effective concentration) against Oesophagostumum dentatum L3
Source text: as §1

[3] = system: Oesophagostumum dentatum; assay: In vitro assay Oesophagostumum dentatum larval stage 4; format: cell-based; details: larval stage 4, 20 larvae per well, microscopic examination; read-out: MEC (minimum effective concentration) against Oesophagostumum dentatum L4
Source text: as §1

[4] = target: T1, human Maxi K channel (BK channel) (Homo sapiens, UniProt Q12791); assay: Agonistic activity at the human Maxi K channel (BK channel), FLIPR membrane potential in CHO K1 cells; format: cell-based; details: CHO K1 cells stably transfected with KCNMA1 and beta1 (KCNMB1) subunits, membrane potential dye
T1 construct: expressed in transfected cells; host or cells: CHO K1
Source text: A CHO K1 cell line was stably transfected with the KCNMA1 (KCa1.1, U11058) and beta1 (KCNMB1) subunits of the human Maxi K channel (Ponte et al, Molecular Pharmacology 2012, 81(4), 567-577).
The complete measurement takes 150 s.

[5] = target: C. elegans Slo-1a (Caenorhabditis elegans, UniProt Q95V25); assay: Agonistic activity at C. elegans Slo-1a, FLIPR membrane potential in CHO K1 cells; details: EC50 agonistic activity at C. elegans Slo-1a, CHO K1 cells stably transfected with slo-1a, membrane potential dye
[6] = system: Dirofilaria immitis; assay: In vitro assay Dirofilaria immitis L1 (microfilaria), motility; format: cell-based; details: 72 h, 3 days incubation, reduction in motility vs DMSO
Protocol: Approximately 500 D. immitis microfilaria were added to a microtiter plate containing a nutrient medium and the test compound in DMSO at varying concentrations. After incubation for 3 days, activity was evaluated as reduction in motility as compared to DMSO as negative control. Compounds were tested in duplicates. Based on the concentration response curves EC50 values were calculated.

Sequence of C. elegans Slo-1a (Q95V25 whole entry): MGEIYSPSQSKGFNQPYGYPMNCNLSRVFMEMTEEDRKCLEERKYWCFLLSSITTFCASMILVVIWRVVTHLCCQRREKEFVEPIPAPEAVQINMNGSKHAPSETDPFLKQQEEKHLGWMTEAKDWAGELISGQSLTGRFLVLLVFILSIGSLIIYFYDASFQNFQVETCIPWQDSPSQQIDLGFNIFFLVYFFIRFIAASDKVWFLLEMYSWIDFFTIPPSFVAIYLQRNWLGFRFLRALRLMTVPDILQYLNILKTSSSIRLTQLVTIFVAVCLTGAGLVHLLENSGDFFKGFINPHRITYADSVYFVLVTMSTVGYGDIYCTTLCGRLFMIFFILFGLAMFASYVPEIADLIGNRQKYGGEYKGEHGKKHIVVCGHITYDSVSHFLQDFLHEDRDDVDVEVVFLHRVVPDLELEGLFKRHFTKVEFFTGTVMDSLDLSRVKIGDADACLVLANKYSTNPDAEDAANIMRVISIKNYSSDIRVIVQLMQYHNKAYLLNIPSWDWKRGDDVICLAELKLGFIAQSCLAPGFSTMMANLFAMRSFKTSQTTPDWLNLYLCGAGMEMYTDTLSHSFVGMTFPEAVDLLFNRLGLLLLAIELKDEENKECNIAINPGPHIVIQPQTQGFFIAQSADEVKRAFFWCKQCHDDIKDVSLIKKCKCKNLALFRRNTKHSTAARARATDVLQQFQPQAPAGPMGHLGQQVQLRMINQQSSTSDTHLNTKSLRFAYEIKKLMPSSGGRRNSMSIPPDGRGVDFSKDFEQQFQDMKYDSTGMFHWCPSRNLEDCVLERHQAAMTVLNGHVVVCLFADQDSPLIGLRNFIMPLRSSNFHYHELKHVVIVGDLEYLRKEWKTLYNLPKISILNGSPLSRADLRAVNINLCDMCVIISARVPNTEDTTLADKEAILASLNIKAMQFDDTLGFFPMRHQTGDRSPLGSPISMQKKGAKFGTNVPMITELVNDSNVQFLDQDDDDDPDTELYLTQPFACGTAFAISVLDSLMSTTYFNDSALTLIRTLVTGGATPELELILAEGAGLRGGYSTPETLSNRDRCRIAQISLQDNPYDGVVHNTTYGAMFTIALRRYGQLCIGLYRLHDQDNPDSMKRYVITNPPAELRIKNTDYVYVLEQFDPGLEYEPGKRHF
T1 sequence (Q12791 1-1178 isoform Q12791-5): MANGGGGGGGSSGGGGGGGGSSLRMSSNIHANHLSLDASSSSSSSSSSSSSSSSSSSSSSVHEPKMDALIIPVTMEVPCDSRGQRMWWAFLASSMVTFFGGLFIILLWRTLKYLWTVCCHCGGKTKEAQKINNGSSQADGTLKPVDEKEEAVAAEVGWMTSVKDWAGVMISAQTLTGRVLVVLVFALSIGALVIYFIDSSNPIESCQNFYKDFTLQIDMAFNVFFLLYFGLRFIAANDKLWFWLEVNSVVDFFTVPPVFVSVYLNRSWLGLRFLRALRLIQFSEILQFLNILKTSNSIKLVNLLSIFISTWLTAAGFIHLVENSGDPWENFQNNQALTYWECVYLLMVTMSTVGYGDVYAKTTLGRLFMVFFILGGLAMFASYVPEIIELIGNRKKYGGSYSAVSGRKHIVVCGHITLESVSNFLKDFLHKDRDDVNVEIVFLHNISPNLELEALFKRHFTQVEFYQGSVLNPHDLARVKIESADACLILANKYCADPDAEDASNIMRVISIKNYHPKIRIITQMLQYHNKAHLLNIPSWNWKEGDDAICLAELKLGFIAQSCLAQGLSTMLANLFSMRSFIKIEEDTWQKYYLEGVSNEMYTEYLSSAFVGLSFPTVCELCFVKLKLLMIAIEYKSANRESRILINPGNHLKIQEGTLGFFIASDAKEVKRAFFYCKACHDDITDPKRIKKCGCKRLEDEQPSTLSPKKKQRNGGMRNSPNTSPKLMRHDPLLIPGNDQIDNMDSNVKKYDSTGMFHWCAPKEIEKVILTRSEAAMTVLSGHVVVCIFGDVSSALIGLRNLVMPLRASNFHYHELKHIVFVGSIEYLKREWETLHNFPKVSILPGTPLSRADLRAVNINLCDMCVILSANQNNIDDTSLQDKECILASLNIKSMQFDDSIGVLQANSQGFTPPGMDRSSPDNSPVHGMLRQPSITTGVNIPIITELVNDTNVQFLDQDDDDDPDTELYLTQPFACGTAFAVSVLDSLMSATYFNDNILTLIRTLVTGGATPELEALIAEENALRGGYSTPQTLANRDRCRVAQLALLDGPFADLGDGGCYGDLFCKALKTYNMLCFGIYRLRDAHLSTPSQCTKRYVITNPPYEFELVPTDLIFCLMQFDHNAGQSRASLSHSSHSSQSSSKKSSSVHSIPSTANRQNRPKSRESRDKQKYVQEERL
T1 sequence (Q16558 whole entry partner): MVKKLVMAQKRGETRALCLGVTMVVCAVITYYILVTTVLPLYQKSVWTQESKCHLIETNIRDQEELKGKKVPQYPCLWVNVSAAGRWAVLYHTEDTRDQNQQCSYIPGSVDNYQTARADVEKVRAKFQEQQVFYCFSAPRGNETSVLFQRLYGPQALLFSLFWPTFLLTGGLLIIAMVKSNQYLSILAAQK

Compound | EC50 [4] [µM] | EC50 [5] [µM] | minimal effective concentration [1] [µM] | minimal effective concentration [2] [µM] | minimal effective concentration [3] [µM] | EC50 [6] [µM]
O=C(N[C@@H]1CCOc2ccccc21)c1cnc(Oc2cc(Cl)cc(Cl)c2)cc1N1CCOCC1 [Compound 24] | > 30 |  |  | ≤ 50 | ≤ 50 | < 10
O=C(N[C@H]1CCc2ccccc21)c1cnc(Nc2cc(Cl)cc(Cl)c2)cc1N1CCOCC1 [Compound 109] | 10 to 30 | < 10 | ≤ 50 | ≤ 50 |  | 
CN(C)c1cc(Sc2cc(Cl)cc(Cl)c2)ncc1C(=O)Nc1cccc2ccccc12 [Compound 16] | > 30 |  | ≤ 50 | ≤ 50 |  | 
CN(C)c1cc(Oc2cc(Cl)cc(Cl)c2)ncc1C(=O)Nc1cccc2ccccc12 [Compound 32] | > 30 |  |  | ≤ 50 |  | < 10
COc1cc(Oc2cc(Cl)cc(Cl)c2)ncc1C(=O)N[C@H]1CCCc2ccccc21 [Compound 85] | > 30 |  | ≤ 50 | ≤ 50 |  | < 10
CN(C)c1cc(Nc2cc(Cl)cc(Cl)c2)ncc1C(=O)N[C@H]1CCOc2ccccc21 [Compound 115] | > 30 | < 10 | ≤ 50 | ≤ 50 |  | 
CN(C)c1cc(S(=O)(=O)c2cc(Cl)cc(Cl)c2)ncc1C(=O)N[C@H]1CCOc2ccccc21 [Compound 100] | > 30 | < 10 | ≤ 50 | ≤ 50 |  | 
COc1cc(Oc2cccc(Cl)c2Cl)ncc1C(=O)N[C@H]1CCCc2ccccc21 [Compound 96] | > 30 |  | ≤ 50 |  |  | < 10
O=C(N[C@@H]1CCOc2ccccc21)c1cnc(Sc2cccc(Cl)c2Cl)cc1N1CCOCC1 [Compound 50] | > 30 |  |  |  |  | < 10
O=C(N[C@H]1CCc2ccccc21)c1cnc(Cc2cc(Cl)cc(Cl)c2)cc1N1CCOCC1 [Compound 117] |  | < 10 | ≤ 50 | ≤ 50 | ≤ 50 | 
O=C(N[C@H]1CCOc2ccccc21)c1cnc(Cc2cc(Cl)cc(Cl)c2)cc1N1CCOCC1 [Compound 112] | > 30 | < 10 | ≤ 50 | ≤ 50 |  | 
CN(C)c1cc([S+]([O-])c2cc(Cl)cc(Cl)c2)ncc1C(=O)N[C@H]1CCOc2ccccc21 (stereo partly shown) [Compound 103] | > 30 | < 10 | ≤ 50 | ≤ 50 | ≤ 50 | < 10
O=C(N[C@H]1CCc2ccccc21)c1cnc(Sc2cccc(Cl)c2Cl)cc1N1CCOCC1 [Compound 23] | > 30 | < 1 | ≤ 50 |  |  | < 10
CN(C)c1cc(S(=O)(=O)c2cc(Cl)cc(Cl)c2)ncc1C(=O)N[C@H]1CCCc2ccccc21 [Compound 102, (S)-6-((3,5-dichlorophenyl)sulfonyl)-4-(dimethylamino)-N-(1,2,3,4-tetrahydronaphthalen-1-yl)nicotinamide] | > 30 |  |  |  | ≤ 50 | < 10
CN(C)c1cc(Oc2cc(Cl)cc(Cl)c2)ncc1C(=O)N[C@@H]1CCOc2ccccc21 [Compound 29] | > 30 |  | ≤ 50 |  | ≤ 50 | < 10
O=C(N[C@H]1CCCc2ccccc21)c1cnc(Cc2cc(Cl)cc(Cl)c2)cc1N1CCOCC1 [Compound 113] | > 30 | < 10 |  | ≤ 50 |  | 
CN(C)c1cc([S+]([O-])c2cc(Cl)cc(Cl)c2)ncc1C(=O)N[C@H]1CCCc2ccccc21 (stereo partly shown) [Compound 101] | > 30 |  |  | ≤ 50 |  | < 10
O=C(N[C@H]1CCOc2ccccc21)c1cnc(Nc2cc(Cl)cc(Cl)c2)cc1N1CCOCC1 [Compound 107] | 10 to 30 | < 10 | ≤ 50 |  |  | 
CSc1cc(Oc2cc(Cl)cc(Cl)c2)ncc1C(=O)N[C@@H]1CCOc2ccccc21 [Compound 60] | > 30 |  |  | ≤ 50 |  | 
O=C(Nc1cccc2ccccc12)c1cnc(Oc2cccc(Cl)c2Cl)cc1N1CCOCC1 [Compound 45] | > 30 |  |  |  |  | < 10

Now from value to compound, other results behind:

EC50 [4] [µM] | EC50 [5] [µM] | Compound | minimal effective concentration [1] [µM] | minimal effective concentration [2] [µM] | minimal effective concentration [3] [µM] | EC50 [6] [µM]
> 30 | < 10 | CN(C)c1cc(Nc2cc(Cl)cc(Cl)c2)ncc1C(=O)N[C@H]1CCc2ccccc21 [Compound 116] | ≤ 50 | ≤ 50 | ≤ 50 | 
> 30 | < 10 | O=C(N[C@H]1CCCc2ccccc21)c1cnc(Nc2cc(Cl)cc(Cl)c2)cc1N1CCOCC1 [Compound 106] | ≤ 50 |  |  | 
> 30 | < 10 | CSc1cc(Sc2cccc(Cl)c2Cl)ncc1C(=O)N[C@H]1CCCc2ccccc21 [Compound 54] | ≤ 50 |  |  | 
> 30 |  | CCSc1cc(Sc2cc(Cl)cc(Cl)c2)ncc1C(=O)N[C@H]1CCOc2ccccc21 [Compound 74] |  | ≤ 50 | ≤ 50 | 
> 30 |  | CN(C)c1cc(Cc2cc(Cl)cc(Cl)c2)ncc1C(=O)N[C@H]1CCCc2ccccc21 [Compound 111] |  | ≤ 50 | ≤ 50 | 
> 30 |  | CCOc1cc(Oc2cccc(Cl)c2Cl)ncc1C(=O)N[C@H]1CCOc2ccccc21 [Compound 92] |  |  | ≤ 50 | 
> 30 | < 10 | CN(C)c1cc(Nc2cc(Cl)cc(Cl)c2)ncc1C(=O)N[C@H]1CCCc2ccccc21 [Compound 108] | ≤ 50 |  |  | 
> 30 |  | COc1cc(Oc2cc(Cl)cc(Cl)c2)ncc1C(=O)N[C@H]1CCOc2ccccc21 [Compound 86] |  | ≤ 50 |  | 
> 30 | < 1 | CN(C)c1cc(Sc2cccc(Cl)c2Cl)ncc1C(=O)N[C@H]1CCCc2ccccc21 [Compound 19] | ≤ 50 |  |  | 
> 30 | < 10 | CN(C)c1cc(Sc2cc(Cl)cc(Cl)c2)ncc1C(=O)N[C@H]1CCCc2ccccc21 [Compound 14] | ≤ 50 |  |  | 
> 30 | < 1 | CN(C)c1cc(Oc2cc(Cl)cc(Cl)c2)ncc1C(=O)N[C@H]1CCCc2ccccc21 [Compound 28] | ≤ 50 |  |  | 
> 30 |  | CCSc1cc(Sc2cccc(Cl)c2Cl)ncc1C(=O)N[C@H]1CCCc2ccccc21 [Compound 62] | ≤ 50 | ≤ 50 |  | 
> 30 | < 10 | COc1cc(Sc2cccc(Cl)c2Cl)ncc1C(=O)N[C@H]1CCCc2ccccc21 [Compound 66] |  | ≤ 50 | ≤ 50 | 
> 30 |  | O=C(Nc1csc2ccccc12)c1cnc(Sc2cccc(Cl)c2Cl)cc1N1CCOCC1 [Compound 48] | ≤ 50 |  | ≤ 50 | 
> 30 | < 10 | COc1cc(Sc2cc(Cl)cc(Cl)c2)ncc1C(=O)N[C@H]1CCOc2ccccc21 [Compound 83] | ≤ 50 | ≤ 50 |  | 
> 30 | < 10 | CSc1cc(Oc2cccc(Cl)c2Cl)ncc1C(=O)N[C@H]1CCc2ccccc21 [Compound 58] | ≤ 50 |  |  | 
> 30 | < 10 | CSc1cc(Oc2cccc(Cl)c2Cl)ncc1C(=O)N[C@H]1CCCc2ccccc21 [Compound 56] | ≤ 50 |  |  | 
> 30 | < 10 | CSc1cc(Sc2cccc(Cl)c2Cl)ncc1C(=O)N[C@H]1CCc2ccccc21 [Compound 53] |  |  | ≤ 50 | 
> 30 | < 10 | COc1cc(Sc2cccc(Cl)c2Cl)ncc1C(=O)N[C@H]1CCOc2ccccc21 [Compound 68] |  |  | ≤ 50 | 
> 30 |  | CCOc1cc(Sc2cc(Cl)cc(Cl)c2)ncc1C(=O)N[C@H]1CCCc2ccccc21 [Compound 99] |  | ≤ 50 |  | 
> 30 |  | CN(C)c1cc(Cc2cc(Cl)cc(Cl)c2)ncc1C(=O)N[C@H]1CCc2ccccc21 [Compound 110] |  | ≤ 50 | ≤ 50 | 
